In patent US4128638A, “Nona- and deca-peptide amide derivatives demonstrating high ovulation inducing activity” (ICI Australia Limited, priority 1975, dated 1978):
Where a SMILES comes first, the peptide text is derived from it. [ ]: non-standard residue; d: D form. pGlu = O=C1CC[C@@H](C(=O)O)N1

Columns and labels:
[1] = test system: androgen-sterilized, constant-oestrous rats; test: Ovulation induction in androgen-sterilized, constant-oestrous rats; type: in vivo; details: intravenous dose/rat 0.25 μg
Source text: This activity is exemplified in the table below:

[2] = test system: LH release from the pituitary gland of ovariectomized ewes; test: Bioassay for LH release in ovariectomized ewes (plasma LH by radioimmunoassay); type: in vivo; details: intravenous injection
Method: Each ewe was bled twice by jugular venipuncture before administration of the analogue, to establish basal levels of LH in plasma. Following intravenous injection of the appropriate analogue dissolved in saline solution (1 ml), blood samples were collected at intervals over the next three hours, centrifuged and subjected to radioimmunoassay for LH.

| Structure (SMILES) | Ovulating rats/group [1] | further results |
| --- | --- | --- |
| CC[C@H](C)[C@H](NC(=O)[C@@H](C)NC(=O)[C@H](Cc1ccc(O)cc1)NC(=O)[C@H](CO)NC(=O)[C@H](Cc1c[nH]c2ccccc12)NC(=O)[C@H](Cc1c[nH]cn1)NC(=O)[C@@H]1CCC(=O)N1)C(=O)N[C@@H](CCCNC(=N)N)C(=O)N1CCC[C@H]1C(=O)NCC(N)=O [D-Ala^6 -Ile^7 -LHRH, L-Pyroglutamyl-L-histidyl-L-tryptophanyl-L-seryl-L-tyrosyl-D-alanyl-L-isoleucyl-L-arginyl-L-prolyl-glycinamide] ([pGlu]HWSY[dA]IRPG-NH2) | 3/3 | – |
| CC(C)[C@H](NC(=O)[C@@H](C)NC(=O)[C@H](Cc1ccc(O)cc1)NC(=O)[C@H](CO)NC(=O)[C@H](Cc1c[nH]c2ccccc12)NC(=O)[C@H](Cc1c[nH]cn1)NC(=O)[C@@H]1CCC(=O)N1)C(=O)N[C@@H](CCCNC(=N)N)C(=O)N1CCC[C@H]1C(=O)NCC(N)=O [D-Ala^6 -Val^7 -LHRH, L-pyroglutamyl-L-histidyl-L-tryptophanyl-L-seryl-L-tyrosyl-D-alanyl-L-valyl-L-arginyl-L-prolylglycinamide] ([pGlu]HWSY[dA]VRPG-NH2) | 3/3 | – |
| CC(C)C[C@H](NC(=O)CCNC(=O)[C@H](Cc1ccc(O)cc1)NC(=O)[C@H](CO)NC(=O)[C@H](Cc1c[nH]c2ccccc12)NC(=O)[C@H](Cc1c[nH]cn1)NC(=O)[C@@H]1CCC(=O)N1)C(=O)N[C@@H](CCCNC(=N)N)C(=O)N1CCC[C@H]1C(=O)NCC(N)=O [Example 1, L-Pyroglutamyl-L-histidyl-L-tryptophanyl-L-seryl-L-tyrosyl-β-alanyl-L- leucyl-L-arginyl-L-prolyl-glycinamide] | – | P* (maximal release of LH by the LHRH analogue at a given dose expressed as a percentage of the LH release by LHRH at the same dose) ([2]; dose 2.5 μg): 97%; P* (maximal release of LH by the LHRH analogue at a given dose expressed as a percentage of the LH release by LHRH at the same dose) ([2]; dose 25 μg): 108% |
| CC(C)C[C@H](NC(=O)CNC(=O)[C@H](Cc1ccc(O)cc1)NC(=O)[C@H](CO)NC(=O)[C@H](Cc1c[nH]c2ccccc12)NC(=O)[C@H](Cc1c[nH]cn1)NC(=O)[C@@H]1CCC(=O)N1)C(=O)N[C@@H](CCCNC(=N)N)C(=O)N1CCC[C@H]1C(=O)NCCC(N)=O [Example 2, L-Pyroglutamyl-L-histidyl-L-tryptophanyl-L-seryl-L-tyrosylglycyl-L-leucyl-L-arginyl-L-prolyl-β-alaninamide] | – | P* (maximal release of LH by the LHRH analogue at a given dose expressed as a percentage of the LH release by LHRH at the same dose) ([2]; dose 5 μg): 12%; P* (maximal release of LH by the LHRH analogue at a given dose expressed as a percentage of the LH release by LHRH at the same dose) ([2]; dose 50 μg): 75% |
| CC(C)C[C@H](NC(=O)CNC(=O)[C@H](Cc1ccc(O)cc1)NC(=O)[C@H](CO)NC(=O)[C@H](Cc1c[nH]c2ccccc12)NC(=O)[C@H](Cc1c[nH]cn1)NC(=O)[C@@H]1CCC(=O)N1)C(=O)N[C@@H](CCCNC(=N)N)C(=O)N1CCC[C@H]1C(=O)N(C)CC(N)=O [Example 3, L-Pyroglutamyl-L-histidyl-L-tryptophanyl-L-seryl-L-tyrosylglycyl-L-leucyl-L-arginyl-L-prolysarcosinamide] | – | P* (maximal release of LH by the LHRH analogue at a given dose expressed as a percentage of the LH release by LHRH at the same dose) ([2]; dose 5 μg): 70%; P* (maximal release of LH by the LHRH analogue at a given dose expressed as a percentage of the LH release by LHRH at the same dose) ([2]; dose 50 μg): 45% |
| CNC(=O)[C@@H]1CCCN1C(=O)[C@H](CCCNC(=N)N)NC(=O)[C@H](CC(C)C)NC(=O)CCNC(=O)[C@H](Cc1ccc(O)cc1)NC(=O)[C@H](CO)NC(=O)[C@H](Cc1c[nH]c2ccccc12)NC(=O)[C@H](Cc1c[nH]cn1)NC(=O)[C@@H]1CCC(=O)N1 [β-Ala^6 -des-Gly^10 -LHRH methylamide, L-Pyroglutamyl-L-histidyl-L-tryptophanyl-L-seryl-L-tyrosyl-β-alanyl-L- leucyl-L-arginyl-L-proline N-methylamide] | 3/3 | – |
| CCCNC(=O)[C@@H]1CCCN1C(=O)[C@H](CCCNC(=N)N)NC(=O)[C@H](CC(C)C)NC(=O)CCNC(=O)[C@H](Cc1ccc(O)cc1)NC(=O)[C@H](CO)NC(=O)[C@H](Cc1c[nH]c2ccccc12)NC(=O)[C@H](Cc1c[nH]cn1)NC(=O)[C@@H]1CCC(=O)N1 [β-Ala^6 -des-Gly^10 -LHRH n-propylamide, L-pyroglutamyl-L-histidyl-L-tryptophanyl-L-seryl-L-tyrosyl-β-alanyl-L- leucyl-L-arginyl-L-proline N-n-propylamide] | 5/6 | – |
| CC(C)C[C@H](NC(=O)CCNC(=O)[C@H](Cc1ccc(O)cc1)NC(=O)[C@H](CO)NC(=O)[C@H](Cc1c[nH]c2ccccc12)NC(=O)[C@H](Cc1c[nH]cn1)NC(=O)[C@@H]1CCC(=O)N1)C(=O)N[C@@H](CCCNC(=N)N)C(=O)N1CCC[C@H]1C(=O)N1CCCC1 [β-Ala^6 -des-Gly^10 -LHRH pyrrolidide, L-Pyroglutamyl-L-histidyl-L-tryptophanyl-L-seryl-L-tyrosyl-β-alanyl-L- leucyl-L-arginyl-L-proline pyrrolidide] | 3/3 | – |
| CCNC(=O)[C@@H]1CCCN1C(=O)[C@H](CCCNC(=N)N)NC(=O)[C@H](CC(C)C)NC(=O)CCNC(=O)[C@H](Cc1ccc(O)cc1)NC(=O)[C@H](CO)NC(=O)[C@H](Cc1c[nH]c2ccccc12)NC(=O)[C@H](Cc1c[nH]cn1)NC(=O)[C@@H]1CCC(=O)N1 [β-Ala^6 des-Gly^10 -FHRH ethylamide, L-Pyroglutamyl-L-histidyl-L-tryptophanyl-L-seryl-L-tyrosyl-β-alanyl-L- leucyl-L-arginyl-L-proline N-ethylamide] | 3/3 | – |
